In US8252781B2, “1,2-diazetidin-3-one derivatives and drugs containing same” (Kowa Company, Ltd., priority 2008, dated 2012) one finds IC50 data, which are given here for 32 compounds.

The structures appear in SMILES notation. Read-outs that look alike come from different tables or passages of the source.

One experiment deals with T1, mouse 11β-HSD1 (Mus musculus, UniProt P50172).
T1 construct: The obtained PCR products of about 0.9 kbp, 1.2 kbp, and 0.9 kbp were subcloned into an expression vector pcDNA3.1+/Zeo; expressed in transfected cells
T1 sequence (P50172 whole entry): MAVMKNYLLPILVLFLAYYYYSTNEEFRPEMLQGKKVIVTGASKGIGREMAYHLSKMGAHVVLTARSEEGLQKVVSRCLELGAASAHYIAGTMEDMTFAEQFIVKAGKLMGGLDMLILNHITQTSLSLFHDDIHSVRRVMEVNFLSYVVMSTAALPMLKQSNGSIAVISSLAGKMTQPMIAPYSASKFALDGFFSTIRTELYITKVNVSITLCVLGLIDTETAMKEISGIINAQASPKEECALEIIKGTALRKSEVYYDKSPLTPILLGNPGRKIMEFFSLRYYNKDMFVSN
As to the kind of experiment: Enzyme inhibitory activity, mouse 11β-HSD1 (lysate of stably expressing CHO-K1 cells, cortisol by competitive ELISA). The following applies: Table 2; mouse 11β-HSD1, cell lysate, 37° C. for 1 hour; read-out: m HSD1 in vitro assay (IC50 uM). It counts as biochemical. In short, it runs like this:
(§1)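 Sonicated lysates of stably transfected cells (diluted to 0.1–0.4 mg/mL before addition) reacted for 1 h at 37 °C in pH 7.4 Tris/sucrose/EGTA/EDTA/MgCl2 buffer with 100 nmol/L cortisone or cortisol and 400 μmol/L NADPH or NAD+, then were heat-stopped at 95 °C. Inhibition rate = 100 minus residual activity.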
Background: An ELISA detects its analyte on a solid surface through an enzyme-linked reagent.

Another experiment has as its target T2, human 11β-HSD1 (Homo sapiens, UniProt P28845).
T2 construct: The obtained PCR products of about 0.9 kbp, 1.2 kbp, and 0.9 kbp were subcloned into an expression vector pcDNA3.1+/Zeo; expressed in transfected cells
As to the kind of experiment: Enzyme inhibitory activity, human 11β-HSD1 (lysate of stably expressing HEK293 cells, cortisol by competitive ELISA). The following applies: human 11β-HSD1, cell lysate, 37° C. for 1 hour, read-out: h HSD1 in vitro assay (IC50 uM). The experiment is classed as biochemical. In short, it runs like this:
as §1

Broadly, the IC50 is the concentration that gives 50% inhibition.

T2 sequence (P28845 whole entry): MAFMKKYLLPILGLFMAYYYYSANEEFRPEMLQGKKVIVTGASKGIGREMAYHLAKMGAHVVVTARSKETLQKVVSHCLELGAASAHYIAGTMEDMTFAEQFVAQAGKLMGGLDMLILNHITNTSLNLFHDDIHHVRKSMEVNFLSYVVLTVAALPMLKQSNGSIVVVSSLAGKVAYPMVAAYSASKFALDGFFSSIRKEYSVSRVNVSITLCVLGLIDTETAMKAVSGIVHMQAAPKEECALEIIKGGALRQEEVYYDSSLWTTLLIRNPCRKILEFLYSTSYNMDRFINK

Regarding `CC1(C)C(=O)N(C2C3CC4CC(C3)CC2C4)N1C(=O)c1ccccc1O` (centres unmarked) [Example 138, 1-[(2-hydroxyphenyl)carbonyl]-4,4-dimethyl-2-(adamantan-2-yl)-1,2-diazetidin-3-one], the concentration for half-maximal inhibition (IC50) was found to be 0.24 µM at mouse 11β-HSD1 and 0.22 µM on human 11β-HSD1 (Table 1).
For the compound `CC1(C)C(=O)N(C2C3CC4CC(C3)CC2C4)N1C(=O)c1ccc(N)cc1` (centres unmarked) [Example 139, 1-[(4-aminophenyl)carbonyl]-4,4-dimethyl-2-(adamantan-2-yl)-1,2-diazetidin-3-one], the IC50 on mouse 11β-HSD1 was 0.36 µM; on human 11β-HSD1 (Table 1) it was 0.79 µM.
For `CC1(C)C(=O)N(C2CCCCCCC2)N1C(=O)c1cccc(Cl)c1` [Example 150, 1-[(3-chlorophenyl)carbonyl]-2-cyclooctyl-4,4-dimethyl-1,2-diazetidin-3-one], the results for the IC50 at mouse 11β-HSD1 and at human 11β-HSD1 (Table 1) were 0.43 µM and 0.84 µM, respectively.
In the same order, the values of `Cc1cccc(C(=O)N2N(C3CCCCCCC3)C(=O)C2(C)C)c1` [Example 151, 2-cyclooctyl-4,4-dimethyl-1-[(3-methylphenyl)carbonyl]-1,2-diazetidin-3-one] are 0.3 µM and 0.81 µM.
With `Cc1ccccc1C(=O)N1N(C2CCCCCCC2)C(=O)C1(C)C` [Example 152, 2-cyclooctyl-4,4-dimethyl-1-[(2-methylphenyl)carbonyl]-1,2-diazetidin-3-one], the IC50 on mouse 11β-HSD1 turned out to be 0.54 µM; on human 11β-HSD1 (Table 1), 0.23 µM.
Regarding `CC1(C)C(=O)N(C2CCCCCCC2)N1C(=O)c1ccccc1N` [Example 153, 1-[(2-aminophenyl)carbonyl]-2-cyclooctyl-4,4-dimethyl-1,2-diazetidin-3-one], the values for the IC50 on mouse 11β-HSD1 and on human 11β-HSD1 (Table 1) were 0.032 µM and 0.14 µM, respectively.
The matching figures for `Cc1c(F)cccc1C(=O)N1N(C2C3CC4CC(C3)CC2C4)C(=O)C1(C)C` (centres unmarked) [Example 157, 1-[(3-fluoro-2-methylphenyl)carbonyl]-4,4-dimethyl-2-(adamantan-2-yl)-1,2-diazetidin-3-one]: 0.15 µM and 0.44 µM.
For the compound `Cc1ccc(C(=O)N2N(C3C4CC5CC(C4)CC3C5)C(=O)C2(C)C)c(C)c1` (centres unmarked) [Example 160, 1-[(2,4-dimethylphenyl)carbonyl]-4,4-dimethyl-2-(adamantan-2-yl)-1,2-diazetidin-3-one], the IC50 on mouse 11β-HSD1 was determined as 0.16 µM; at human 11β-HSD1 (Table 1) it was 0.52 µM.
`CC1(C)C(=O)N(C2C3CC4CC(C3)CC2C4)N1c1ccc(N)cc1` (centres unmarked) [Example 183, 1-(4-aminophenyl)-4,4-dimethyl-2-(adamantan-2-yl)-1,2-diazetidin-3-one]: the 50% inhibitory concentration (IC50) at mouse 11β-HSD1 worked out at 0.76 µM; on human 11β-HSD1 (Table 2), 0.057 µM.
The matching figures for `Cc1ccccc1N1N(C2C3CC4CC(C3)CC2C4)C(=O)C1(C)C` (centres unmarked) [Example 192, 4,4-dimethyl-1-(2-methylphenyl)-2-(adamantan-2-yl)-1,2-diazetidin-3-one]: 0.03 µM and 0.49 µM.
The matching figures for `Cc1cccc(N2N(C3C4CC5CC(C4)CC3C5)C(=O)C2(C)C)c1` (centres unmarked) [Example 193, 4,4-dimethyl-1-(3-methylphenyl)-2-(adamantan-2-yl)-1,2-diazetidin-3-one]: 0.36 µM and 0.86 µM.
Take `COc1cccc(N2N(C3C4CC5CC(C4)CC3C5)C(=O)C2(C)C)c1` (centres unmarked) [Example 204, 1-(3-methoxyphenyl)-4,4-dimethyl-2-(adamantan-2-yl)-1,2-diazetidin-3-one]: the results for the concentration for half-maximal inhibition (IC50) at mouse 11β-HSD1 and at human 11β-HSD1 (Table 1) were 0.42 µM and 0.16 µM, respectively.
In the same order, the values of `COc1ccccc1N1N(C2C3CC4CC(C3)CC2C4)C(=O)C1(C)C` (centres unmarked) [Example 205, 1-(2-methoxyphenyl)-4,4-dimethyl-2-(adamantan-2-yl)-1,2-diazetidin-3-one] are 0.2 µM and 0.1 µM.
As for `Cc1cccc(N2N(C3C4CC5CC(C4)CC3C5)C(=O)C2(C)C)c1C` (centres unmarked) [Example 207, 1-(2,3-dimethylphenyl)-4,4-dimethyl-2-(adamantan-2-yl)-1,2-diazetidin-3-one], the IC50 at mouse 11β-HSD1 came to 0.054 µM; on human 11β-HSD1 (Table 2), 0.61 µM.
The matching figures for `CC1(C)C(=O)N(C2C3CC4CC(C3)CC2C4)N1c1csc2ccccc12` (centres unmarked) [Example 210, 1-(1-benzothiophen-3-yl)-4,4-dimethyl-2-(adamantan-2-yl)-1,2-diazetidin-3-one]: 0.16 µM and 0.44 µM.
As for `CC1(C)C(=O)N(C2C3CC4CC(C3)CC2C4)N1c1ccccc1O` (centres unmarked) [Example 219, 1-(2-hydroxyphenyl)-4,4-dimethyl-2-(adamantan-2-yl)-1,2-diazetidin-3-one], the half-maximal inhibitory concentration (IC50) was 0.23 µM on mouse 11β-HSD1 and 0.56 µM on human 11β-HSD1 (Table 2).
Regarding `COc1ccccc1N1N(C2CCCCCCC2)C(=O)C1(C)C` [Example 220, 2-cyclooctyl-1-(2-methoxyphenyl)-4,4-dimethyl-1,2-diazetidin-3-one], the IC50 came to 0.088 µM on mouse 11β-HSD1 and 0.056 µM at human 11β-HSD1 (Table 1).
In the same order, the values of `CC1(C)C(=O)N(C2CC3CCC2C3)N1c1cccc(Cl)c1Cl` (centres unmarked) [Example 224, 2-(bicyclo[2.2.1]heptan-2-yl)-1-(2,3-dichlorophenyl)-4,4-dimethyl-1,2-diazetidin-3-one] are 0.34 µM and 0.044 µM.
`CC1(C)C(=O)N(C2CC3CCC2C3)N1c1cccc2ccccc12` (centres unmarked) [Example 225, 2-(bicyclo[2.2.1]heptan-2-yl)-4,4-dimethyl-1-(naphthalen-1-yl)-1,2-diazetidin-3-one]: the IC50 came to 0.012 µM at mouse 11β-HSD1 and 0.036 µM on human 11β-HSD1 (Table 1).
With `CC1(C)C(=O)N([C@H]2C3CC4CC2C[C@](O)(C4)C3)N1c1ccccc1O` [Example 233, trans-1-(2-hydroxyphenyl)-2-(5-hydroxyadamantan-2-yl)-4,4-dimethyl-1,2-diazetidin-3-one], the results for the IC50 at mouse 11β-HSD1 and on human 11β-HSD1 (Table 2) were 0.27 µM and 0.18 µM, respectively.
In the same order, the values of `CC1(C)C(=O)N([C@H]2C3CC4CC2C[C@](O)(C4)C3)N1c1ccc(N)cc1` [Example 235, trans-1-(4-aminophenyl)-2-(5-hydroxyadamantan-2-yl)-4,4-dimethyl-1,2-diazetidin-3-one] are 0.75 µM and 0.056 µM.
For the compound `CC1(C)C(=O)N([C@H]2C3CC4CC2C[C@](O)(C4)C3)N1c1cccc2ccccc12` [Example 236, trans-2-(5-hydroxyadamantan-2-yl)-4,4-dimethyl-1-(naphthalen-1-yl)-1,2-diazetidin-3-one], the IC50 at mouse 11β-HSD1 was 0.31 µM; on human 11β-HSD1 (Table 1), 0.095 µM.
Regarding `CC1(C)C(=O)N([C@H]2C3CC4CC2C[C@](O)(C4)C3)N1c1ccc(F)c2ccccc12` [Example 238, trans-1-(4-fluoronaphthalen-1-yl)-2-(5-hydroxyadamantan-2-yl)-4,4-dimethyl-1,2-diazetidin-3-one], the 50% inhibitory concentration (IC50) came out at 0.38 µM on mouse 11β-HSD1 and 0.02 µM at human 11β-HSD1 (Table 1).
The matching figures for `CC1(C)C(=O)N([C@H]2C3CC4CC2C[C@@](O)(C4)C3)N1c1cccc2ccccc12` [Example 247, cis-2-(5-hydroxyadamantan-2-yl)-4,4-dimethyl-1-(naphthalen-1-yl)-1,2-diazetidin-3-one]: 0.26 µM and 0.027 µM.
The matching figures for `CC1(C)C(=O)N([C@H]2C3CC4CC2C[C@@](O)(C4)C3)N1c1ccc(F)c2ccccc12` [Example 249, cis-1-(4-fluoronaphthalen-1-yl)-2-(5-hydroxyadamantan-2-yl)-4,4-dimethyl-1,2-diazetidin-3-one]: 0.78 µM and 0.013 µM.
Regarding `COCOc1ccccc1N1N([C@H]2C3CC4CC2C[C@](Cl)(C4)C3)C(=O)C1(C)C` [Example 252, trans-2-(5-chloroadamantan-2-yl)-1-[2-(methoxymethoxy)phenyl]-4,4-dimethyl-1,2-diazetidin-3-one], the IC50 on mouse 11β-HSD1 is 0.24 µM; on human 11β-HSD1 (Table 1), 0.034 µM.
`CC1(C)C(=O)N([C@H]2C3CC4CC2C[C@](Cl)(C4)C3)N1c1cccc2ccccc12` [Example 254, trans-2-(5-chloroadamantan-2-yl)-4,4-dimethyl-1-(naphthalen-1-yl)-1,2-diazetidin-3-one]: the IC50 is 0.075 µM on mouse 11β-HSD1 and 0.012 µM at human 11β-HSD1 (Table 1).
In the same order, the values of `CC1(C)C(=O)N([C@H]2C3CC4CC2C[C@](Cl)(C4)C3)N1c1ccc(F)c2ccccc12` [Example 255, trans-2-(5-chloroadamantan-2-yl)-1-(4-fluoronaphthalen-1-yl)-4,4-dimethyl-1,2-diazetidin-3-one] are 0.18 µM and 0.003 µM.
`CC1(C)C(=O)N([C@H]2C3CC4CC2C[C@@](Cl)(C4)C3)N1c1cccc2ccccc12` [Example 257, cis-2-(5-chloroadamantan-2-yl)-4,4-dimethyl-1-(naphthalen-1-yl)-1,2-diazetidin-3-one]: the IC50 at mouse 11β-HSD1 and on human 11β-HSD1 (Table 1) was 0.24 µM throughout.
Regarding `CC1(C)C(=O)N(C2C3CC4CC(C3)CC2C4)N1CCCc1ccccc1` (centres unmarked) [Example 261, 4,4-dimethyl-1-(3-phenylpropyl)-2-(adamantan-2-yl)-1,2-diazetidin-3-one], the figures for the IC50 at mouse 11β-HSD1 and at human 11β-HSD1 (Table 2) were 0.7 µM and 0.45 µM, respectively.
The matching figures for `CC1(C)C(=O)N(C2C3CC4CC(C3)CC2C4)N1CCc1ccccc1` (centres unmarked) [Example 266, 4,4-dimethyl-1-(2-phenylethyl)-2-(adamantan-2-yl)-1,2-diazetidin-3-one]: 0.47 µM and 0.55 µM.
For `CC1(C)C(=O)N(C2C3CC4CC2CC(C(N)=O)(C4)C3)N1c1cccc2ccccc12` (stereo not drawn) [Example 273, cis-4-[2-(naphthalen-1-yl)-3,3-dimethyl-4-oxo-1,2-diazetidin-1-yl]adamantane-1-carboxamide], the IC50 on mouse 11β-HSD1 came to 0.1 µM; on human 11β-HSD1 (Table 1), 0.02 µM; on human 11β-HSD1 (Table 2), 0.02 µM.
